Results as given in US20020147210A1, “Methods for delaying recurrence of herpes virus symptoms” (3M Innovative Properties Company, priority 2000, published 2002).

System: recurrent herpes genitalis (herpes virus)
Experiment: Randomized, double-blind vehicle-controlled clinical study of resiquimod gel formulations topically applied to herpetic lesions of the external genitalia
Type: in vivo, human
Settings: topical, patients with recurrent herpes genitalis, 6 month observation period
Method: Propylene glycol (700 g) and resiquimod (4-amino-2-ethoxymethyl-α,α-dimethyl-1H-imidazo[4,5-c]quinoline-1-ethanol, 1.4 g) were added to a 1000 mL glass beaker. The resulting mixture was heated (about 55° C.) with stirring until all of the resiquimod was dissolved. The resulting solution was added to the mixing bowl of a ROSS LDM-4 mixer. Triacetin (11,968.7 g) was added to the mixing bowl and the resulting mixture was mixed for 10 minutes at 36 rpm. Colloidal silicon dioxide (1,330.0 g, AEROSIL®200 from Degussa, Frankfurt, Germany) was added in five parts. After each addition the resulting mixture was mixed at ambient pressure for 1 to 2 minutes at 36 rpm and then under vacuum (18 inches of Hg below ambient pressure, […]) for about 9 minutes at 36 rpm. The sides of the mixing bowl and the mixing blades were scraped. The formulation was mixed under vacuum (17 inches of Hg below ambient pressure, […]) for about 10 minutes at 36 rpm. The resulting gel contained 0.01% resiquimod, 5.0% propylene glycol, 9.5% colloidal silicon dioxide, and 85.49% triacetin.
Using the method described above, a second formulation was prepared by combining 7.0 g of resiquimod, 700.0 g of propylene glycol, 11963.0 g of triacetin and 1,330.0 g of colloidal silicon dioxide. The resulting gel contained 0.05% resiquimod, 5.0% propylene glycol, 9.5% colloidal silicon dioxide, and 85.45% triacetin.
A randomized, double-blind vehicle (placebo)-controlled study was performed to evaluate single and multi-weekly doses of the resiquimod formulations prepared above topically applied to herpetic lesions on the skin of the external genitalia.
52 otherwise healthy patients (20 to 60 years of age, inclusive) with a history of recurrent herpes genitalis (≧6 episodes per year) participated in the study. […] After passing screening, patients were enrolled into a 12-week eligibility period to qualify for treatment by virtue of experiencing a herpetic recurrence. During the eligibility period patients' qualified for the treatment period by coming to the study site for treatment visit one within 24 hours of a recurrence. At this visit patients were stratified by sex and enrolled sequentially into an active treatment or vehicle treatment regimen.
The treatment period began with the first treatment visit and ended with the final treatment visit. The treatment groups were 0.05 percent resiquimod containing formulation or formulation alone (vehicle) 1×/week for 4 weeks; 0.05 percent resiquimod containing formulation or formulation alone 2×/week for 3 weeks; 0.01 percent resiquimod formulation or formulation alone 2×/week for 3 weeks; or 0.01 percent resiquimod formulation or formulation alone 3×/week for 3 weeks. […]

CCOCc1nc2c(N)nc3ccccc3c2n1CC(C)(C)O [Resiquimod, 4-amino-α,α-dimethyl-2-ethoxymethyl-1H-imidazo[4,5-c]quinoline-1-ethanol]
Median No. Days to Recurrence after treatment cessation (0.01% resiquimod gel, 2×/wk, 3 weeks): 172.5 days
Median No. Days to Recurrence after treatment cessation (0.01% resiquimod gel, 3×/wk, 3 weeks): >195 days
Median No. Days to Recurrence after treatment cessation (0.05% resiquimod gel, 1×/wk, 4 weeks): >60 days
Median No. Days to Recurrence after treatment cessation (0.05% resiquimod gel, 2×/wk, 3 weeks): 105 days
